# Source: the supplement of paper PMC11003180
# Assays:
# Experiment in all cases: drug sensitivity score (DSS) from 5-dose viability curve (DSS (area-based score, 0 = no response)); higher = more sensitive (stronger viability inhibition); extreme values may be limits of the assay
# [1] = test system: MDCK wild-type - doxycycline; settings: doxycycline: none; 72 h
# How it was run: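 Parental MDCK cells, grown without doxycycline, were seeded at 2000 cells/well into 384-well plates pre-spotted with an oncology library of 528 drugs at five doses (1-10,000 nM). After 72 h at 37 °C, CellTiter-Glo luminescence was read. Viability was scaled per plate between vehicle and positive controls, and drug sensitivity scores were derived from dose-response curve fits in the Breeze pipeline.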
# [2] = test system: MDCK p60AmotL2-inducible + doxycycline (p60AmotL2 expressing); settings: doxycycline: 10 ng/mL; 72 h
# How it was run: (§1)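 Pre-spotted 384-well plates held 528 oncology drugs, each at five doses from 1 to 10,000 nM. Parental and doxycycline-inducible MDCK cells, exposed beforehand to 10 ng/mL doxycycline in the medium, were added at 2000 cells/well and incubated 72 h at 37 °C. Viability came from CellTiter-Glo luminescence normalized per plate to vehicle and positive controls, and the Breeze pipeline fitted dose-response curves to give drug sensitivity scores.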
# [3] = test system: MDCK wild-type + doxycycline; settings: doxycycline: 10 ng/mL; 72 h
# How it was run: as §1
SMILES,drug sensitivity score [1],drug sensitivity score [2],drug sensitivity score [3]
O=C(Nc1cccnc1)N1CCC(Cc2cccc(Oc3ccc(C(F)(F)F)cn3)c2)CC1 [PF-3845],0,0.8,0
C[C@@H]1CN(CC(=O)Nc2ccc3c(c2)Cc2cccc(-c4cc(=O)cc(N5CCOCC5)o4)c2S3)C[C@H](C)O1,2.2,2.4,2
N#CC1(c2ccc(NC(=O)c3cccnc3NCc3ccncc3)cc2)CCCC1 [Apatinib],0,0,2.7
Cc1cccc(-c2nn3c(c2-c2ccnc4ccc(C(N)=O)cc24)CCC3)n1 [Galunisertib],0,0,0
CC(C)Oc1ccc(C(=O)N[C@H](CNC(=O)CN(C)C)Cc2ccc(-c3cn4cccc([C@H](C)O)c4n3)cc2)cc1Cl,10.7,15.8,12.8
Clc1ccc(Nc2nnc(Cc3ccncc3)c3ccccc23)cc1 [Vatalanib],0,0,0
C[C@@H](Nc1cc(F)cc(F)c1)c1cc(C(=O)N(C)C)cc2c(=O)cc(N3CCOCC3)oc12 [AZD-8186],0,1.4,0
Cn1ncc(Cl)c1-c1cc(C(=O)N[C@H](CN)Cc2ccc(F)c(F)c2)oc1Cl [Uprosertib],0,0,0
C[C@@H]1COC(Nc2ccc3ncnc(Nc4ccc(OCc5nccs5)c(Cl)c4)c3c2)=N1 [Varlitinib],1.6,7.2,3.6
CN1CCc2c(c3ccccc3n2Cc2ccc(C(=O)NO)cc2)C1 [Tubastatin A],0,0.7,0
CO[C@H]1C[C@@H]2CC[C@@H](C)[C@@](O)(O2)C(=O)C(=O)N2CCCC[C@H]2C(=O)O[C@H]([C@H](C)C[C@@H]2CC[C@@H](OCCO)[C@H](OC)C2)CC(=O)[C@H](C)/C=C(\C)[C@@H](O)[C@@H](OC)C(=O)[C@H](C)C[C@H](C)/C=C/C=C/C=C/1C [Everolimus],2.1,8,2.1
C[C@@H]1CN(C(=O)c2ccc(NC(=O)c3cc(O[C@H](C)c4c(Cl)ccc(F)c4Cl)c(N)nn3)cc2)C[C@H](C)N1 [Ensartinib],0,1.4,0
Cc1ccc(NC(=O)c2ccc(CN3CCN(C)CC3)cc2)cc1Nc1nccc(-c2cccnc2)n1 [Imatinib],2.7,3.4,0
CCOc1ccn(-c2ccc(F)cc2)c(=O)c1C(=O)Nc1ccc(Oc2ccnc(N)c2Cl)c(F)c1,0,0,0
CC(C)(O)CC(=O)NCCn1ccc2ncnc(Nc3ccc(Oc4cccc(C(F)(F)F)c4)c(Cl)c3)c21 [TAK-285],1.8,6.4,3.1
O=C(O)c1ccc(-c2c[nH]c3ncc(-c4ccccc4)cc23)cc1C1CCCC1,0,0.8,1
Nc1nccc(-c2c(-c3ccc(F)cc3)ncn2C2CCCCC2)n1,0.7,2.3,0.5
CCS(=O)(=O)N1CCN(c2ccc(Nc3ncc(C(N)=O)c(NC4CC4)n3)cc2)CC1 [Cerdulatinib],0.2,0.2,0
Cc1sc2c(c1C)C(c1ccc(Cl)cc1)=N[C@@H](CC(=O)Nc1ccc(O)cc1)c1nnc(C)n1-2 [Birabresib],5.8,16.6,10.7
